Test results published in patent publication US10828305B2 (SHANGHAI PHARMACEUTICALS HOLDING CO., LTD., priority 2016, dated 2020).

What was measured:
EGFR kinase = EGFR kinase (Homo sapiens, UniProt P00533); test: Enzymatic experiment on EGFR (HTRF kinEASE-TK); format: biochemical; conditions: ATP 1.65 μM; read-out: Kinase IC50 (nM) in vitro EGFR
Experimental: (§1) Enzymatic Experiment on EGFR/ErbB2
(§2) Firstly, preparing 1× reaction buffer required for the kinase, 5× Enzymatic buffer (HEPES 20 mM pH7.0, NaN3 0.1%, BSA 0.05%, sodium orthovanadate 0.5 mM) in the HTRF kinEASE-TK kit was diluted to 1 time with deionized water, 50 nM Supplement Enzymatic buffer (SEB reagent), 1 mM MnCl2, 5 mM MgCl2 and 1 mM DTT were added. Secondly, preparing 5× compound, 10 mM test compound stock solution was diluted in multiple steps with DMSO in a 96-well compound plate to prepare 100× compound as initial concentration, which was then used as the first concentration to perform a 3-fold gradient dilution with DMSO to obtain 10 concentrations. Afterwards, 1 μl gradient dilution was added to 19 μl 1× reaction buffer to prepare 5× compound for use. Then 2 μl 5× compound was transferred from the 96 well plate into a 384-well plate. To the compound-free control wells was added with 2 μl the following liquid: 19 μl 1× reaction buffer with addition of 1 μl DMSO. To the blank control wells was added 2 μl 250 mM EDTA. The third step was enzymatic reaction, the kinase, substrate (TK Substrate-biotin) and ATP were formulated into 2.5× enzyme/substrate mixture and 2.5×ATP solution using 1× reaction buffer respectively. The final concentration of ErbB2 kinase was 0.06 ng/μl, the final concentration of ATP was 4 μM; the final concentration of EGFR kinase was 0.06 units/μl, the final concentration of ATP was 1.65 μM; 4 μl 2.5× enzyme/substrate mixture was added to a 384-well plate, which was incubated at room temperature for 5 minutes; 4 μl 2.5×ATP solution was added to each well and the mixture was allowed to react for 30 minutes at room temperature. The fourth step was termination of the reaction, HTRF Detection buffer was used to prepare a mixture of 2×TK Antibody-Eu(K) and Sa-XL665, the amount of TK Antibody-Eu(K) was 5 μl per well. After the enzymatic reaction was performed for 30 minutes, 10 μl of the above liquid was added to the 384-well plate and the mixture was allowed to react at room temperature for 1 hour. The data was measured on EnVision™, the laser of 337 nm wavelength was selected as the excitation light, RFU665 nM and RFU620 nM were measured, and […]/RFU620 nM×10000 was used as the final data for analysis.

ErbB2 kinase = ErbB2 kinase (Homo sapiens, UniProt P04626); test: Enzymatic experiment on ErbB2 (HTRF kinEASE-TK); format: biochemical; conditions: ATP 4 μM; read-out: Kinase IC50 (nM) in vitro ErbB2
Chain of ErbB2 kinase (P04626 23-1255): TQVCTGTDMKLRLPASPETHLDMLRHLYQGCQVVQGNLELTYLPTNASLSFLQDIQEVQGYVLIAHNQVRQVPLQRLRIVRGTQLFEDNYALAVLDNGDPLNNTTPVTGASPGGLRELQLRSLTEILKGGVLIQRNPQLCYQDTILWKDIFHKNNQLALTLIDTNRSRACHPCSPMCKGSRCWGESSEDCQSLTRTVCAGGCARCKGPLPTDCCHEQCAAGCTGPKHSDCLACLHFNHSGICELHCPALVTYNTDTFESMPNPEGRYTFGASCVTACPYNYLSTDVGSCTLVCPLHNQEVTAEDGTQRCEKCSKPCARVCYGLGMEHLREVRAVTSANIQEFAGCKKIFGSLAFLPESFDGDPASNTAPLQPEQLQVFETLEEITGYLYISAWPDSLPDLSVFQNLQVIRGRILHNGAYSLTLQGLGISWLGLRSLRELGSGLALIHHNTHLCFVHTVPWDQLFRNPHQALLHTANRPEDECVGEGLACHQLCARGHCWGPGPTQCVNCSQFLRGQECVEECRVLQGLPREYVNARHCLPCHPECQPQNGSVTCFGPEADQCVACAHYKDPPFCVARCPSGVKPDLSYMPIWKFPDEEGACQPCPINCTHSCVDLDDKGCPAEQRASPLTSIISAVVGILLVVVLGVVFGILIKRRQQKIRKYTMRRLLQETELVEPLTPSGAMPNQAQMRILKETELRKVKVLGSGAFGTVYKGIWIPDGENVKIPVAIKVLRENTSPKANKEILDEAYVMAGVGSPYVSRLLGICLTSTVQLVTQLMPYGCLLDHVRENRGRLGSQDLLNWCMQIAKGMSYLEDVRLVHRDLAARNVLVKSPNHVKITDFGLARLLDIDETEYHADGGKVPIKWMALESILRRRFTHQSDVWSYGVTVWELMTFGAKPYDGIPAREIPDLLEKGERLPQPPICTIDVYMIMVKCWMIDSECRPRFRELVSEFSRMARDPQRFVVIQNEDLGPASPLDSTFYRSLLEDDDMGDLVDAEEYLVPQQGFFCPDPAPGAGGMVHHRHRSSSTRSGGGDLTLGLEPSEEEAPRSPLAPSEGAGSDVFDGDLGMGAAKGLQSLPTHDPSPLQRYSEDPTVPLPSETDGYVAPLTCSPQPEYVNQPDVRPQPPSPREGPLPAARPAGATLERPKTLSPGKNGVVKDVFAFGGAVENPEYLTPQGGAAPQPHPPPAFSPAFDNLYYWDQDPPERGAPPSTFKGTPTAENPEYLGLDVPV
Experimental: as §1, §2

Chain of EGFR kinase (P00533 25-1210): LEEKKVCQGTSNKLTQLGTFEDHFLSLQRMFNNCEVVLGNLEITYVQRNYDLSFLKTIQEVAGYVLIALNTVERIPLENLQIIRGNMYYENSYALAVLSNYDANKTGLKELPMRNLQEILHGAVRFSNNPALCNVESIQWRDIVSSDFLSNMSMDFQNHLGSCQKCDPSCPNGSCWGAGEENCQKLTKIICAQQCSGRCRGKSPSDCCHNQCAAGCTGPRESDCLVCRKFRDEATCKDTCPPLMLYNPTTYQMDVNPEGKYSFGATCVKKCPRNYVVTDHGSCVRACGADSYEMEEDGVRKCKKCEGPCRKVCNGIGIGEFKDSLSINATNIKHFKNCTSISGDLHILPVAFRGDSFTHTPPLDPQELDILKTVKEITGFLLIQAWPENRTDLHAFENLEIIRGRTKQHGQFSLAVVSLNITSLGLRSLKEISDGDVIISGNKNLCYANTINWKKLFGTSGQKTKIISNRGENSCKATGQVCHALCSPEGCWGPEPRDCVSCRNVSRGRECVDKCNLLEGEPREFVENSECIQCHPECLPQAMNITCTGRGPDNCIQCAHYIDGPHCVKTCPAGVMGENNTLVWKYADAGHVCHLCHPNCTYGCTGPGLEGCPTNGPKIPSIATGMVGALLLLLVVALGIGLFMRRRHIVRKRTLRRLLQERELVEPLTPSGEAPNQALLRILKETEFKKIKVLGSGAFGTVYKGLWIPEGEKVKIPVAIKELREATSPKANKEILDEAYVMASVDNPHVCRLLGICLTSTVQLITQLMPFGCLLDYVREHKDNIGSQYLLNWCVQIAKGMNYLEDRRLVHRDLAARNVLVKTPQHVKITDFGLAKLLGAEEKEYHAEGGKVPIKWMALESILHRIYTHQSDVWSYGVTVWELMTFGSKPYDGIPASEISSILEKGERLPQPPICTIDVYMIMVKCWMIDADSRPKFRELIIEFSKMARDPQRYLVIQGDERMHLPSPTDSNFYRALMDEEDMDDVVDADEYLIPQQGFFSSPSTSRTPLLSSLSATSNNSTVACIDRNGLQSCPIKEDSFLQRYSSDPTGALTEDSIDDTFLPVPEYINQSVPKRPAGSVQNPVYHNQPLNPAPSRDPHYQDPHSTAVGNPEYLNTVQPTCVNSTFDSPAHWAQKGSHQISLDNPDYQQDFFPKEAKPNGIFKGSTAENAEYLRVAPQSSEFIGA

| SMILES | IC50 (EGFR kinase) [nM] | IC50 (ErbB2 kinase) [nM] |
| --- | --- | --- |
| Cc1cc(Nc2ncnc3ccc(/C=C/C(=O)NOCCO)cc23)ccc1Oc1cc2nncn2cn1 | 82.7 | 22.1 |
| Cc1cc(Nc2ncnc3ccc(NC4=NC(C)(C)CO4)cc23)ccc1Oc1cc2ncnn2cn1 [Embodiment 2, N^4-(4-([1,2,4]triazolo[1,5-c]pyrimidin-7-yloxy)-3-methylphenyl)-N^6-(4,4-dimethyl-4,5-dihydrooxazol-2-yl)quinazoline-4,6-diamine] | 230 | 16.7 |
| Cc1cc(Nc2ncnc3ccc(NC(=O)N4CCOCC4)cc23)ccc1Oc1cc2nncn2cn1 [Embodiment 6] | 1890 | 24.8 |
| Cc1cc(Nc2ncnc3ccc(NC(=S)NC(C)(C)CNC(=O)OC(C)(C)C)cc23)ccc1Oc1cc2nncn2cn1 [Embodiment 11, tert-butyl (2-(3-(4-((4-([1,2,4]triazolo[4,3-c]pyrimidin-7-yloxy)-3-methylphenyl)amino)quinazolin-6-yl)thioureido)-2-methylpropyl)carbamate] | > 3330 | 58.1 |
| Cc1cc(Nc2ncnc3ccc(NC(=S)NCC(C)(C)N)cc23)ccc1Oc1cc2nncn2cn1 [Embodiment 18, 1-(4-((4-([1,2,4]triazolo[4,3-c]pyrimidin-7-yloxy)-3-methylphenyl)amino)quinazolin-6-yl)-3-(2-amino-2-methylpropyl)thiourea] | 79.5 | 13.2 |
| Cc1cc(Nc2ncnc3ccc(NC(=O)OC[C@@H]4COCCN4)cc23)ccc1Oc1cc2nncn2cn1 [Embodiment 20, morpholin-3-ylmethyl (S)-(4-((4-([1,2,4]triazolo[4,3-c]pyrimidin-7-yloxy)-3-methylphenyl)amino)quinazolin-6-yl)carbamate] | 40.6 | 4.3 |
| Cc1cc(Nc2ncnc3ccc(NC4=NCC5(CCNCC5)O4)cc23)ccc1Oc1cc2nncn2cn1 [Embodiment 28, N^4-(4-([1,2,4]triazolo[4,3-c]pyrimidin-7-yloxy)-3-methylphenyl)-N^6-(1-oxa-3,8-diazaspiro[4.5]dec-2-en-2-yl)quinazoline-4,6-diamine] | 17.7 | 4.79 |
| C=CC(=O)N1CC2(COC(Nc3ccc4ncnc(Nc5ccc(Oc6cc7nncn7cn6)c(C)c5)c4c3)=N2)C1 [Embodiment 29, 1-(6-((4-((4-([1,2,4]triazolo[4,3-c]pyrimidin-7-yloxy)-3-methylphenyl)amino)quinazolin-6-yl)amino)-7-oxa-2,5-diazaspiro[3.4]oct-5-en-2-yl)prop-2-en-1-one] | 41.8 | 3.6 |
| Cc1cc(Nc2ncnc3ccc(NC(=O)CC#N)cc23)ccc1Oc1cc2nncn2cn1 [Embodiment 37, N-(4-((4-([1,2,4]triazolo[4,3-c]pyrimidin-7-yloxy)-3-methylphenyl)amino)quinazoline-6-yl)-2-cyanoacetamide] | 45.2 | 4.8 |
| Cc1cc(Nc2ncnc3ccc(NC(=O)c4cnoc4C)cc23)ccc1Oc1cc2nncn2cn1 [Embodiment 39, N-(4-((4-([1,2,4]triazolo[4,3-c]pyrimidin-7-yloxy)-3-methylphenyl)amino)quinazoline-6-yl)-5-methylisoxazole-4-carboxamide] | 20 | 1.8 |
| COc1cc2ncnc(Nc3ccc(Oc4cc5nncn5cn4)c(C)c3)c2cc1OC1CCNCC1 [Embodiment 40, N-(4-([1,2,4]triazolo[4,3-c]pyrimidin-7-yloxy)-3-methylphenyl)-7-methoxy-6-(piperidin-4-yloxy)quinazolin-4-amine] | 12.7 | 6.9 |
| Cc1cc(Nc2ncnc3ccc(NC4=NCC(F)(F)CO4)cc23)ccc1Oc1cc2nncn2cn1 [Embodiment 43, N^4-(4-([1,2,4]triazolo[4,3-c]pyrimidin-7-yloxy)-3-methylphenyl)-N^6-(5,5-difluoro-5,6-dihydro-4H-1,3-oxazin-2-yl)quinazoline-4,6-diamine] | 69.7 | 9.26 |
| Cc1cc(Nc2ncnc3ccc(NC(=O)Nc4cc(C)n(C(=O)OC(C)(C)C)n4)cc23)ccc1Oc1cc2nncn2cn1 [Embodiment 69, tert-butyl 3-(3-(4-((4-([1,2,4]triazolo[4,3-c]pyrimidin-7-yloxy)-3-methylphenyl)amino)quinazolin-6-yl)ureido)-5-methyl-1H-pyrazol-1-carbamate] | 92.7 | 7 |
| Cc1cc(Nc2ncnc3ccc(NC(=O)/C(C#N)=C/C4CC4)cc23)ccc1Oc1cc2nncn2cn1 [Embodiment 85, (E)-N-(4-((4-([1,2,4]triazolo[4,3-c]pyrimidin-7-yloxy)-3-methylphenyl)amino)quinazolin-6-yl)-2-cyano-3-cyclopropylacrylamide] | 14.9 | 2.2 |
| CC1(C)COC(Nc2ccc3ncnc(Nc4ccc(Oc5cc6nncn6cn5)c(CO)c4)c3c2)=N1 [Embodiment 89, N^4-(3-hydroxymethyl-4-([1,2,4]triazolo[4,3-c]pyrimidin-7-yloxy)phenyl)-N^6-(4,4-dimethyl-4,5-dihydrooxazol-2-yl)quinazolin-4,6-diamine] | 167 | 8.5 |
| Cc1cc(Nc2ncnc3ccc(NC4=NC(C)(C)CO4)cc23)ccc1Oc1ncn2cnnc2c1O [Embodiment 102, 7-(4-((6-((4,4-dimethyl-4,5-dihydrooxazol-2-yl)amino)quinazolin-4-yl)amino)-2-methylphenoxy)-[1,2,4]triazolo[4,3-c]pyrimidin-8-ol] | 11.4 | 4.5 |
| Cc1cc(Nc2ncnc3ccc(NC(=S)NCC(C)(C)O)cc23)ccc1Oc1cc2nncn2cn1 [Embodiment 113, 1-(4-((4-([1,2,4]triazolo[4,3-c]pyrimidin-7-yloxy)-3-methylphenyl)amino)quinazolin-6-yl)-3-(2-hydroxy-2-methylpropyl)thiourea] | 170 | 9.4 |
| C=CC(=O)N1CCC2(CC1)CN=C(Nc1ccc3ncnc(Nc4ccc(Oc5cc6nncn6cn5)c(C)c4)c3c1)O2 [Embodiment 114, 1-(2-((4-((4-([1,2,4]triazolo[4,3-c]pyrimidin-7-yloxy)-3-methylphenyl)amino)quinazolin-6-yl)amino)-1-oxa-3,8-diazaspiro[4,5]dec-2-en-8-yl)-2-acrylamide] | 623 | 24.5 |
| Cc1cc(Nc2ncnc3ccc(NC4=NC(C)(C)CO4)cc23)ccc1Oc1ccn2nccc2n1 [reference compound] | 82.7 | 49.4 |
| Cc1cc(Nc2ncnc3ccc(NC4=NC(C)(C)CO4)cc23)ccc1Oc1ccc2nncn2n1 [reference compound] | 557 | 935 |
